Measurements from patent US8426447B2, “Spiro-tricyclic ring compounds as beta-secretase modulators and methods of use” (Amgen Inc., priority 2008, dated 2013).
Each block holds one compound with its values, some of them ahead of it.

Key:
BACE1 [1] = biological target: T1, BACE1 (Homo sapiens, UniProt P56817); assay: In Vitro Enzymatic BACE FRET (Fluorescence Resonance Energy Transfer) Assay; type: biochemical; conditions: read-out: BACE1 FRET assay
Experimental: In Vitro Enzymatic BACE FRET (Fluorescence Resonance Energy Transfer) Assay (Enzyme Assay Data in the Example Tables I, II, III & IV) The assay buffer used in this screen is 0.05 M acetate, pH 4.2, 10% DMSO final, 100 uM genapol (which is a nonionic detergent, below its Critical Micelle Concentration). […] This assay is effectively started by the addition of FRET substrate (50 nM) and the combination is incubated for one hour. The FRET assay is terminated with by addition of Tris buffer, which raises the pH to neutrality, and the fluorescence is determined. The FRET substrate is a peptide with commercially available fluorophore and quencher, on opposite sides of the BACE cleavage site. […]

BACE1 [2] = biological target: T1, BACE1; assay: In Vitro BACE Cell-based Assay (HEK cell assay): Aβ40 in conditioned medium of cells stably expressing Amyloid Precursor Protein, sandwich ELISA; conditions: read-out: HEK cell assay
Experimental: In Vitro BACE Cell-based Assay
The cell-based assay measures inhibition or reduction of Aβ40 in conditioned medium of test compound treated cells expressing amyloid precursor protein.
Cells stably expressing Amyloid Precursor Protein (APP) were plated at a density of 40K cells/well in 96 well plates (Costar). The cells were cultivated for 24 hours at 37° C. and 5% CO2 in DMEM supplemented with 10% FBS. The test compounds were then added to cells in 10-point dose response concentrations with the starting concentration being either 100 μM or 10 μM. The compounds were diluted from stock solutions in DMSO and the final DMSO concentration of the test compounds on cells was 0.1%. After 24 h of incubation with the test compounds the supernatant conditioned media was collected and the Aβ 40 levels were determined using a sandwich ELISA. The IC50 of the compound was calculated from the percent of control or percent inhibition of Aβ 40 as a function of the concentration of the test compound.
The sandwich ELISA to detect Aβ 40 was performed in 96 well microtiter plates, which were pre-treated with goat anti-rabbit IgG (Pierce). The capture and detecting antibody pair that were used to detect Aβ 40 from cell supernatants were affinity purified pAb40 (Biosource) and biotinylated 6E10 (Signet Labs Inc.), respectively. The optimal concentration for the pAb40 antibody was 3 μg/ml in Superblock/TBS (Pierce) that was supplemented with 0.05% Tween 20 (Sigma).
Cellular supernatants were incubated with the capture antibody for 3 h at 4° C., followed by 3 wash steps in TBS-tween (0.05%). The detecting antibody incubation was for 2 h at 4° C., again followed by the wash steps as described previously. The final readout of the ELISA is Time-Resolved Fluorescence (counts per minute) using Delfia reagents Streptavidin-Europium and Enhancement solutions (Perkin Elmer) and the Victor 2 multilabel counter (Perkin Elmer).

[3] = in vitro BACE FRET enzyme assay, IC50 class symbols
[4] = HEK cell-based assay, Aβ40 in conditioned medium, IC50 class symbols

T1 sequence (P56817 46-501, species assumed): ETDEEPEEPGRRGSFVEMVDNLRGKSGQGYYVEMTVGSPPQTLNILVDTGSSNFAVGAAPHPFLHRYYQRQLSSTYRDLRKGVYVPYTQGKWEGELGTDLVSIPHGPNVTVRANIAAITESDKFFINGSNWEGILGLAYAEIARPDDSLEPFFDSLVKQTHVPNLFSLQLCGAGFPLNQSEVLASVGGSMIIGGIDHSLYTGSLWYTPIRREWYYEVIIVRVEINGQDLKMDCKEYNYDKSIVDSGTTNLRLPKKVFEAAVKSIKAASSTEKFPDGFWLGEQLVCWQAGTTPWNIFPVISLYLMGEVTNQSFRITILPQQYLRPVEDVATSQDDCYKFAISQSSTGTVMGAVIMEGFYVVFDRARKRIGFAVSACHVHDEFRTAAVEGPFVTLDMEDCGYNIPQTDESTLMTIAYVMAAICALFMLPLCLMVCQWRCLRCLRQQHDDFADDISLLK

SMILES: COC(C)(C)C#Cc1cnc2c(c1)[C@@]1(COC(N)=N1)c1cc(-c3ccc(F)nc3)ccc1O2 [compound 723]
IC50 (BACE1 [1]): 0.1 to 1 µM
IC50 (BACE1 [2]): 1 to 5 µM

SMILES: NC1=N[C@@]2(CO1)c1cc(Br)ccc1Oc1ccc(-c3cccnc3)cc12 [compound 876]
IC50 (BACE1 [1]; Table IV, class symbols): 0.1 to 1 µM
IC50 (BACE1 [2]; Table IV, class symbols): 1 to 5 µM

SMILES: NC1=N[C@@]2(CO1)c1cc(-c3cccnc3)ccc1Oc1cnc(N3CCOCC3)cc12 [compound 335]
IC50 (BACE1 [1]; [3]): < 0.1 µM
IC50 (BACE1 [2]; [4]): < 0.1 µM

SMILES: CC(C)(O)C#Cc1ccc2c(c1)[C@@]1(COC(N)=N1)c1cc(-c3cccnc3)ccc1O2 [151b]
IC50 (BACE1 [1]; Table III, IC50's in uM ranges): < 0.1 µM
IC50 (BACE1 [2]; Table III, IC50's in uM ranges): < 0.1 µM

SMILES: CCCOc1ccc2c(c1)C1(COC(N)=N1)c1cc(-c3cncnc3)ccc1O2 (stereo not drawn) [Example 9, 2′-propoxy-7′-(5-pyrimidinyl)spiro[1,3-oxazole-4,9′-xanthen]-2-amine]
IC50 (BACE1 [1]; Table 1): < 0.1 µM
IC50 (BACE1 [2]; Table 1, Aβ40, 24 h incubation): 0.1 to 1 µM

SMILES: CC(C)(C)COc1ccc2c(c1)[C@]1(COC(N)=N1)c1cc(-c3ccc(C#N)cc3)ccc1O2 [compound 972]
IC50 (BACE1 [1]): 0.1 to 1 µM
IC50 (BACE1 [2]): > 5 µM

SMILES: CC(C)(C)COc1ccc2c(c1)[C@@]1(COC(N)=N1)c1cc(-c3cncnc3)cc(F)c1O2 [155a]
IC50 (BACE1 [1]; Table III, IC50's in uM ranges): < 0.1 µM
IC50 (BACE1 [2]; Table III, IC50's in uM ranges): 0.1 to 1 µM

SMILES: CCCOc1cc2c(cc1F)Oc1ccc(-c3ccc(F)nc3)cc1[C@@]21COC(N)=N1 [compound 920]
IC50 (BACE1 [1]; Table IV, class symbols): < 0.1 µM
IC50 (BACE1 [2]; Table IV, class symbols): 0.1 to 1 µM

SMILES: NC1=N[C@@]2(CO1)c1cc(-c3cccnc3)ccc1Oc1cnc(N3CCC4(CC3)OCCO4)cc12 [compound 443]
IC50 (BACE1 [1]): < 0.1 µM
IC50 (BACE1 [2]; HEK cells): < 0.1 µM

SMILES: C=C(C)COc1ccc2c(c1)[C@]1(COC(N)=N1)c1cc(-c3cccnc3)ccc1O2 [compound 146]
IC50 (BACE1 [1]; Table III, IC50's in uM ranges): < 0.1 µM
IC50 (BACE1 [2]; Table III, IC50's in uM ranges): 0.1 to 1 µM

SMILES: CC(=O)COc1ccc2c(c1)[C@]1(COC(N)=N1)c1cc(-c3cccnc3)ccc1O2 [compound 923]
IC50 (BACE1 [1]; Table IV, class symbols): < 0.1 µM
IC50 (BACE1 [2]; Table IV, class symbols): < 0.1 µM

SMILES: CC(C)C[C@@H]1CN(c2ccc3c(c2)[C@]2(COC(N)=N2)c2cc(-c4cccnc4)ccc2O3)CCO1 [compound 360]
IC50 (BACE1 [1]; [3]): 0.1 to 1 µM
IC50 (BACE1 [2]; [4]): 0.1 to 1 µM

Second part, the compound after the results:

IC50 (BACE1 [1]): < 0.1 µM
IC50 (BACE1 [2]): 0.1 to 1 µM
SMILES: CC(C)Cn1cc(-c2ccc3c(c2)[C@]2(COC(N)=N2)c2cc(-c4cccnc4)ccc2O3)cn1 [compound 708]

IC50 (BACE1 [1]): 1 to 5 µM
IC50 (BACE1 [2]): > 5 µM
SMILES: NC1=N[C@]2(CO1)c1cc(-c3cccc(F)c3)ccc1Oc1ncc(C3=CCOCC3)cc12 [compound 690]

IC50 (BACE1 [1]): < 0.1 µM
IC50 (BACE1 [2]): < 0.1 µM
SMILES: CC1(COc2cc3c(cc2F)Oc2ccc(-c4cncnc4)cc2[C@@]32COC(N)=N2)COC1 [compound 712]

IC50 (BACE1 [1]; Table IV, class symbols): < 0.1 µM
IC50 (BACE1 [2]; Table IV, class symbols): 0.1 to 1 µM
SMILES: CC(C)(C)COc1ccc2c(c1)[C@]1(COC(N)=N1)c1cc(-c3ccc(Cl)nc3)ccc1O2 [compound 887]

IC50 (BACE1 [1]; Table IV, class symbols): < 0.1 µM
IC50 (BACE1 [2]; Table IV, class symbols): < 0.1 µM
SMILES: Cc1ccc(-c2ccc3c(c2)[C@]2(COC(N)=N2)c2cc(-c4cncnc4)ccc2O3)o1 [compound 880]

IC50 (BACE1 [1]; Table IV, class symbols): > 5 µM
IC50 (BACE1 [2]; Table IV, class symbols): > 5 µM
SMILES: NC1=N[C@@]2(CO1)c1cc(Br)ccc1Oc1ncccc12 [compound 601]

IC50 (BACE1 [1]; [3]): < 0.1 µM
IC50 (BACE1 [2]; [4]): < 0.1 µM
SMILES: N#Cc1ccc(-c2cc3c(cn2)Oc2ccc(-c4cccnc4F)cc2[C@@]32COC(N)=N2)cc1 [compound 372]

IC50 (BACE1 [1]): 0.1 to 1 µM
IC50 (BACE1 [2]): 1 to 5 µM
SMILES: CCc1cc2c3c(ccc2o1)Oc1ncc(-c2cncnc2)cc1[C@]31COC(N)=N1 [compound 769]

IC50 (BACE1 [1]; Table IV, class symbols): < 0.1 µM
IC50 (BACE1 [2]; Table IV, class symbols): 0.1 to 1 µM
SMILES: COC(=O)c1ccc2c(c1)[C@@]1(COC(N)=N1)c1cc(OCC(C)(C)C)ccc1O2 [compound 875]

IC50 (BACE1 [1]; [3]): 0.1 to 1 µM
IC50 (BACE1 [2]; [4]): 0.1 to 1 µM
SMILES: COCC[C@@H]1CN(c2ccc3c(c2)[C@]2(COC(N)=N2)c2cc(-c4cccnc4)ccc2O3)CCO1 [compound 362]

IC50 (BACE1 [1]): < 0.1 µM
IC50 (BACE1 [2]): 0.1 to 1 µM
SMILES: N#Cc1ccccc1-c1ccc2c(c1)[C@]1(COC(N)=N1)c1cc(-c3cccnc3)ccc1O2 [compound 962]

IC50 (BACE1 [1]; [3]): < 0.1 µM
IC50 (BACE1 [2]; [4]): < 0.1 µM
SMILES: NC1=N[C@@]2(CO1)c1cc(-c3cc(Cl)ccc3F)ccc1Oc1cnc(-c3ccncc3)cc12 [compound 330]
